From US20250268953A1, “COMPOSITIONS AND METHODS FOR TREATING DISEASE II” (MICROBA IP PTY LTD, priority 2021, published 2025)
“Also recorded” adds a separate entry of the source.

Key:
DSS treated C57Bl/6 mice = experiment: Acute model of DSS induced murine colitis (gut barrier dysfunction); type: in vivo; settings: 3% DSS six days; for DSS induced weight loss / epithelial injury / pathology / histopathological healing (histopathological score): vs DSS+vehicle
[1] = system: IL-6-mediated activation of STAT3; experiment: HEK-Blue IL-6 reporter cell line, STAT3-responsive SEAP reporter; type: cell-based, human; settings: control Janus kinase inhibitor at 10 μM; IL-6 2 ng/mL, 24 hours
Procedure: STAT3 activity was assessed using the HEK Blue IL-6 cell line (Invivogen). Briefly, 50,000 cells per well were seeded in triplicate in a 96-well plate 24 hours prior to the start of the assay. Bacteria supernatant or sterile bacterial medium were added to the cells at a final concentration of 10% v/v for a 60-minute pretreatment. Then recombinant human IL 6 (R&D systems) was added at a final concentration of 2 ng/mL and the cells were incubated at 37° C. for 24 hours. The ability of the supernatants to suppress IL-6 mediated STAT3 activation was compared to the Janus kinase inhibitor tofacitinib (10 μM). After 24 hours, the STAT3 regulated SEAP reporter activity was assessed using Quanti Blue solution as recommended by the manufacturer (Invivogen). Results are the average of three independent experiments. Cytotoxicity was assessed using the CellTiter-Glo® 2.0 Cell Viability Assay (Promega, Australia) as recommended by the manufacturer.

[2] = system: IL-23-mediated activation of STAT3; experiment: HEK-Blue IL-23 reporter cell line, STAT3 inducible SEAP reporter; type: cell-based, human; settings: control Janus kinase inhibitor at 10 μM; rhIL-23 5 ng/mL, 6 hours
Procedure: Then, each seed culture broth was used to inoculate two technical replicates each generating six technical replicates from three biological replicates. The technical replicates were grown until early stationary phase and then cell free culture supernatant was harvested as previously described (Giri et al., 2019). Culture supernatants were size fractionated by passing through a 3 kDa CENTRICON® column according to the manufacturer's (Merck Millipore) instructions. To prepare A. shahii MH21-6 supernatant samples for assay, a seed culture was established from a single colony and grown until early stationary phase. Then, the seed culture broth was used to inoculate two technical replicates. […]
STAT3 activity was assessed using the HEK Blue IL-23 cell line (Invivogen). […] STAT3 regulated SEAP reporter activity was assessed using Quanti Blue solution as recommended by the manufacturer (Invivogen). […] Cytotoxicity was assessed using an MTT assay. […] Cytotoxicity was assessed by measuring absorbance at 540 nm as recommended by the manufacturer (Invitrogen, Thermo Fisher, Australia). […]
STAT3 activity was assessed using the HEK Blue IL-23 cell line (Invivogen). […] STAT3 regulated SEAP reporter activity was assessed using Quanti Blue solution as recommended by the manufacturer (Invivogen). […] Cytotoxicity was assessed using MTT assay. […]

[3] = Example 3 (G. formicilis) study

| SMILES | DSS induced weight loss (DSS treated C57Bl/6 mice; Example 1 (A. shahii) study, daily treatment) | goblet cells (DSS treated C57Bl/6 mice; Example 1 (A. shahii) study, relative to vehicle treated control) | epithelial injury (DSS treated C57Bl/6 mice; Example 1 (A. shahii) study) | pathology / histopathological healing (histopathological score) (DSS treated C57Bl/6 mice; Example 1 (A. shahii) study) | epithelial injury (DSS treated C57Bl/6 mice; Example 2 (C. sana) study) | pathology / histopathological healing (histopathological score) (DSS treated C57Bl/6 mice; Example 2 (C. sana) study) | DSS induced weight loss (DSS treated C57Bl/6 mice; [3]) | epithelial injury (DSS treated C57Bl/6 mice; [3]) | pathology / histopathological healing (histopathological score) (DSS treated C57Bl/6 mice; [3]) | IL-6 mediated activation of STAT3 [1] | IL-23 mediated activation of STAT3 (SEAP expression) [2] |
| --- | --- | --- | --- | --- | --- | --- | --- | --- | --- | --- | --- |
| C[C@]12C=CC(=O)C=C1CC[C@@H]1[C@@H]2C(=O)C[C@@]2(C)[C@H]1CC[C@]2(O)C(=O)CO [prednisone] | exacerbated the DSS induced weight loss | ameliorated | ameliorated | significant improvement in disease pathology | Neither prednisone nor F. prausnitzii A2-165 had a significant impact | Neither prednisone nor F. prausnitzii A2-165 had a significant impact | exacerbated the DSS induced weight loss | ameliorated | significant improvement in disease pathology |  |  |
| C[C@@H]1CCN(C(=O)CC#N)C[C@@H]1N(C)c1ncnc2[nH]ccc12 [tofacitinib] |  |  |  |  |  |  |  |  |  | fully prevented | could be prevented; also recorded: inhibited IL-23 mediated SEAP expression |
